Measured values from US11053204B2, “Pyrimidinyloxy benzene derivatives as herbicides” (FMC Corporation, priority 2015, dated 2021).

What was measured:
Type in all cases: in vivo
[1] = system: blackgrass (Alopecurus myosuroides); experiment: Test C preemergence, plant response rating; conditions: Preemergence
In short: (§1)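 Preemergence: seeds sown in loam–sand blend or silt loam and sprayed with test chemicals in a non-phytotoxic surfactant-containing solvent. Postemergence: potted plants at 2–18 cm (1–4-leaf stage) sprayed with the same formulation. After 13–15 d in greenhouse, visual rating versus controls on 0 (no effect) to 100 (complete control) scale.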

[2] = system: morningglory (Ipomoea coccinea); experiment: Test C preemergence, plant response rating; conditions: Preemergence
In short: as §1

[3] = system: waterhemp (common waterhemp, Amaranthus rudis); experiment: Test C preemergence, plant response rating; conditions: Preemergence
In short: as §1

[4] = system: foxtail, giant (giant foxtail, Setaria faberii); experiment: Test C preemergence, plant response rating; conditions: Preemergence
In short: as §1

[5] = system: ragweed (common ragweed, Ambrosia elatior); experiment: Test C preemergence, plant response rating; conditions: Preemergence
In short: as §1

[6] = system: crabgrass, large (large crabgrass, Digitaria sanguinalis); experiment: Test C preemergence, plant response rating; conditions: Preemergence
In short: as §1

[7] = system: soybean (Glycine max); experiment: Test C preemergence, plant response rating; conditions: Preemergence
In short: as §1

[8] = system: oilseed rape (Brassica napus); experiment: Test C preemergence, plant response rating; conditions: Preemergence
In short: as §1

[9] = system: velvetleaf (Abutilon theophrasti); experiment: Test C preemergence, plant response rating; conditions: Preemergence
In short: as §1

[10] = system: nutsedge, yellow (yellow nutsedge, Cyperus esculentus); experiment: Test C preemergence, plant response rating; conditions: Preemergence
In short: as §1

[11] = system: lambsquarters (Chenopodium album); experiment: Test C preemergence, plant response rating; conditions: Preemergence
In short: as §1

[12] = system: corn (Zea mays); experiment: Test C preemergence, plant response rating; conditions: Preemergence
In short: as §1

[13] = system: wheat (winter wheat, Triticum aestivum); experiment: Test C preemergence, plant response rating; conditions: Preemergence
In short: as §1

[14] = system: ryegrass, Italian (Italian ryegrass, Lolium multiflorum); experiment: Test C preemergence, plant response rating; conditions: Preemergence
In short: as §1

[15] = system: chickweed (common chickweed, Stellaria media); experiment: Test C postemergence, plant response rating; conditions: for Chickweed plant response rating: scale 0 to 100 (0 no effect, 100 complete control)
In short: as §1

[16] = system: morningglory (Ipomoea coccinea); experiment: Test C postemergence, plant response rating; conditions: for Morningglory plant response rating: scale 0 to 100 (0 no effect, 100 complete control)
In short: as §1

[17] = system: foxtail, giant (giant foxtail, Setaria faberii); experiment: Test C postemergence, plant response rating; conditions: for Foxtail, Giant plant response rating: scale 0 to 100 (0 no effect, 100 complete control)
In short: as §1

[18] = system: ducksalad (Heteranthera limosa); experiment: Test B flooded paddy test, plant response rating; conditions: 250 g ai/ha; Flood; scale of 0 to 100 where 0 is no effect and 100 is complete control; 13 to 15 days
In short: (§2)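 Test compounds are applied straight into paddy water held 3 cm above the soil surface, with that flood maintained for the whole test. After 13 to 15 days in the greenhouse, each species is scored visually relative to controls.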

[19] = system: rice (Oryza sativa); experiment: Test B flooded paddy test, plant response rating; conditions: 250 g ai/ha; Flood; scale of 0 to 100 where 0 is no effect and 100 is complete control; 13 to 15 days
In short: as §2

[20] = system: barnyardgrass (Echinochloa crus-galli); experiment: Test B flooded paddy test, plant response rating; conditions: 250 g ai/ha; Flood; scale of 0 to 100 where 0 is no effect and 100 is complete control; 13 to 15 days
In short: as §2

[21] = system: sedge, umbrella (small-flower umbrella sedge, Cyperus difformis); experiment: Test B flooded paddy test, plant response rating; conditions: 250 g ai/ha; Flood; scale of 0 to 100 where 0 is no effect and 100 is complete control; 13 to 15 days
In short: as §2

CCCC(=O)c1c(Oc2ncc(Cl)cn2)cccc1C(F)(F)F [Compound 136]
Plant response rating, Blackgrass ([1]; 125 g ai/ha, scale of 0 to 100): 95
Plant response rating, Blackgrass ([1]; 16 g ai/ha, scale 0 to 100): 0
Plant response rating, Blackgrass ([1]; 31 g ai/ha, scale 0 to 100): 35
Plant response rating, Blackgrass ([1]; 62 g ai/ha, scale 0 to 100): 60
Plant response rating, Morningglory ([2]; 125 g ai/ha, scale of 0 to 100): 30
Plant response rating, Morningglory ([2]; 31 g ai/ha, scale 0 to 100): 0
Plant response rating, Morningglory ([2]; 62 g ai/ha, scale 0 to 100): 5
Plant response rating, Waterhemp ([3]; 125 g ai/ha, scale of 0 to 100): 100
Plant response rating, Waterhemp ([3]; 31 g ai/ha, scale 0 to 100): 100
Plant response rating, Waterhemp ([3]; 62 g ai/ha, scale 0 to 100): 100
Plant response rating, Foxtail, Giant ([4]; 125 g ai/ha, scale of 0 to 100): 100
Plant response rating, Foxtail, Giant ([4]; 31 g ai/ha, scale 0 to 100): 65
Plant response rating, Foxtail, Giant ([4]; 62 g ai/ha, scale 0 to 100): 70
Plant response rating, Ragweed ([5]; 125 g ai/ha, scale of 0 to 100): 40
Plant response rating, Ragweed ([5]; 31 g ai/ha, scale 0 to 100): 20
Plant response rating, Ragweed ([5]; 62 g ai/ha, scale 0 to 100): 0
Plant response rating, Crabgrass, Large ([6]; 125 g ai/ha, scale of 0 to 100): 100
Plant response rating, Crabgrass, Large ([6]; 16 g ai/ha, scale 0 to 100): 50
Plant response rating, Crabgrass, Large ([6]; 31 g ai/ha, scale 0 to 100): 85
Plant response rating, Crabgrass, Large ([6]; 62 g ai/ha, scale 0 to 100): 100
Plant response rating, Soybean ([7]; 125 g ai/ha, scale of 0 to 100): 40
Plant response rating, Soybean ([7]; 31 g ai/ha, scale 0 to 100): 0
Plant response rating, Soybean ([7]; 62 g ai/ha, scale 0 to 100): 15
Plant response rating, Oilseed Rape ([8]; 125 g ai/ha, scale of 0 to 100): 98
Plant response rating, Oilseed Rape ([8]; 31 g ai/ha, scale 0 to 100): 5
Plant response rating, Oilseed Rape ([8]; 62 g ai/ha, scale 0 to 100): 70
Plant response rating, Velvetleaf ([9]; 125 g ai/ha, scale of 0 to 100): 65
Plant response rating, Velvetleaf ([9]; 31 g ai/ha, scale 0 to 100): 5
Plant response rating, Velvetleaf ([9]; 62 g ai/ha, scale 0 to 100): 15
Plant response rating, Nutsedge, Yellow ([10]; 125 g ai/ha, scale of 0 to 100): 5
Plant response rating, Nutsedge, Yellow ([10]; 31 g ai/ha, scale 0 to 100): 0
Plant response rating, Nutsedge, Yellow ([10]; 62 g ai/ha, scale 0 to 100): 0
Plant response rating, Lambsquarters ([11]; 125 g ai/ha, scale of 0 to 100): 80
Plant response rating, Lambsquarters ([11]; 31 g ai/ha, scale 0 to 100): 30
Plant response rating, Lambsquarters ([11]; 62 g ai/ha, scale 0 to 100): 25
Plant response rating, Corn ([12]; 125 g ai/ha, scale of 0 to 100): 5
Plant response rating, Corn ([12]; 16 g ai/ha, scale 0 to 100): 0
Plant response rating, Corn ([12]; 31 g ai/ha, scale 0 to 100): 0
Plant response rating, Corn ([12]; 62 g ai/ha, scale 0 to 100): 5
Plant response rating, Wheat ([13]; 125 g ai/ha, scale of 0 to 100): 10
Plant response rating, Wheat ([13]; 31 g ai/ha, scale 0 to 100): 0
Plant response rating, Wheat ([13]; 62 g ai/ha, scale 0 to 100): 0
Plant response rating, Ryegrass, Italian ([14]; 125 g ai/ha, scale of 0 to 100): 65
Plant response rating, Ryegrass, Italian ([14]; 31 g ai/ha, scale 0 to 100): 30
Plant response rating, Ryegrass, Italian ([14]; 62 g ai/ha, scale 0 to 100): 35
Plant response rating, Chickweed ([15]; 16 g ai/ha, scale of 0 to 100): 55
Plant response rating, Chickweed ([15]; 31 g ai/ha, scale 0 to 100): 65
Chickweed plant response rating ([15]; 62 g ai/ha): 75
Chickweed plant response rating ([15]; 125 g ai/ha): 80
Plant response rating, Morningglory ([16]; 16 g ai/ha, scale of 0 to 100): 10
Plant response rating, Morningglory ([16]; 31 g ai/ha, scale 0 to 100): 15
Morningglory plant response rating ([16]; 62 g ai/ha): 20
Morningglory plant response rating ([16]; 125 g ai/ha): 35
Plant response rating, Foxtail, Giant ([17]; 16 g ai/ha, scale of 0 to 100): 10
Plant response rating, Foxtail, Giant ([17]; 31 g ai/ha, scale 0 to 100): 20
Foxtail, Giant plant response rating ([17]; 62 g ai/ha): 10
Foxtail, Giant plant response rating ([17]; 125 g ai/ha): 25
Plant response rating, Ducksalad [18]: 60
Plant response rating, Rice [19]: 35
Plant response rating, Barnyardgrass [20]: 45
Plant response rating, Sedge, Umbrella [21]: 80
